Reference: US20210087525A1, “COST EFFECTIVE CULTURE MEDIA AND PROTOCOL FOR HUMAN INDUCED PLURIPOTENT STEM CELLS” (NORTHWESTERN UNIVERSITY, priority 2019, published 2021)

Tests used:
[1] = system: hiPSC; experiment: long-term 5-passage, 4-day hiPSC growth assay; type: cell-based, human; details: FIG. 5D-L
Source text: FIG. 5A-P. Optimization of B8 Medium Constituents with a Long-Term Growth Assay. Results are normalized to initial medium component concentrations shown with a dark gray bar, optimizations were completed using long-term 5-passage, 4-day growth assay. Comparison of the effect of (A) recombinant human insulin concentration on relative growth (n=10). (B) L-ascorbic acid 2-phosphate (n=10). (C) Recombinant transferrin (n=10). (D) Sodium selenite (n=5). (E) In-house made FGF2-G3 (n=6). (G) NODAL (n=5). (H) Activin A (n=5). (I) In-house made TGFb3 after 9 passages compared to commercial TGFb1 (n=9). (J) Addition of NRG1 to 40 ng ml−1 FGF2-G3 (n>5). (K) Final B8 formula. n=full experimental replicates, unpaired Student's T-test, *P≤0.05, **P≤0.01, ***P≤0.005, ****P≤0.0001, n.s.=not significant.
Our initial short-term experiments provided preliminary optimizations, yet we were aware from previous experiments that some variables, such as the elimination of TGFβ1, had minimal effects short-term and would only have detectable negative effects in long-term experiments. Thus the effectiveness of a long-term assay was evaluated with the following assay protocol: […]

[2] = Huang et al., 2014; cited from earlier work
[3] = system: phospho-ERK; experiment: stimulation of phospho-ERK in FGF2-starved hiPSC by media stored at 37° C. (Western blot); type: cell-based, human; details: FIG. 7E
Protocol: FIG. 7A-E. Qualification of B8 as Suitable for hiPSC Generation and Culture. […] (B) Expression of pluripotent markers in a variety of B8-derived hiPSC lines. (C) Example G-banding karyotype analysis of four hiPSC lines derived in B8 from blood. (D) hiPSC growth at low seeding densities in B8 compared to E8 (n=8). (E) Assessment of stimulation of phospho-ERK after media had been stored at 37° C. for 2 or 7 days, comparing in-house generated FGF2-G3 to a commercial FGF2 (Peprotech). hiPSC were starved of FGF2 for 24 h then treated with the indicated media for 1 h before collection for Western blot. Total ERK was used as a loading control.
Stock lysis buffer was prepared as 150 mM NaCl, 20 mM Tris pH 7.5, 1 mM EDTA, 1 mM EGTA, and 1% Triton X-100 and stored at 4° C. Fresh complete lysis buffer was prepared with final concentration of 1× Protease Inhibitor (Roche, 5892791001), 1× Phosphatase Inhibitor Cocktail 2 (P5726, Sigma), 1× Phosphatase Inhibitor Cocktail 3 (Sigma, P0044), 2 mM PMSF (Sigma, P7626), and 1% SDS Solution (Fisher Scientific, BP2436200). hiPSC were starved using B8 without FGF2 for 24 hours, then treated with media containing the corresponding FGF2 for 1 h. Media was then removed, and cells were washed once with DPBS, harvested with 0.5 mM EDTA in DPBS, and transferred into tubes. Samples were pelleted by centrifugation at 500×g for 3 minutes and the supernatant was discarded. The pellet was resuspend in 150 μl complete lysis buffer and incubated on ice for 30 min. Clear lysates were collected by centrifugation at 10,000×g for 10 min at 4° C. The protein concentration was measured with Qubit Protein Assay Kit (Invitrogen, Q33211) and Qubit 4 fluorometer. Lysates was stored in −80° C. before use. 10 μg of sample was prepared with NuPAGE™ LDS Sample Buffer (Invitrogen, B0007) and NuPAGE™ Reducing Agent (Invitrogen, B0009) according to the manufacturer's instructions and run on NuPAGE™ 10% Bis-Tris Gel (Invitrogen, NP0302BOX) and Mini Gel Tank system (Invitrogen, A25977) with Bolt MES SDS Running Buffer (Invitrogen, B000202) at 100 V for 1 h. […]

[4] = system: hiPSC; experiment: weekend-free media change / passaging schedule growth; type: cell-based, human; details: various doses, FIG. 8E
Protocol: FIG. 8A-H. Optimization of Weekend-Free Passaging Schedule that is Still Compatible with Monolayer Differentiation. (A) Establishment of an optimal 4-day media change schedule. (B) 7 day passage with media change schedule. (C) 7 day passage only schedule. (D) Comparison of growth when using two 7-day weekend-free passaging schedules with or without addition of 0.5 mg ml−1 albumin (n=2). (E) Comparison the addition of varying levels of albumin (mg ml−1) to a 7-day passage and media change schedule (n=4). (F) Cardiac differentiation efficiency when using 7-day passage and media change schedule (n=5). (G) Endothelial differentiation efficiency when using 7-day passage and media change schedule (n=6). (H) […]
With the understanding that B8 supports hiPSC growth across a variety of sub-optimal conditions (FIG. 7D), we established the suitability of this formula to skip days of media change. […] With the knowledge of the influence of various media change-skipping timelines, we devised a 7-day schedule consisting of passaging cells every 3.5 days that would allow for the skipping of media changes on the weekends, a major caveat of current hiPSC culture protocols (FIGS. 8B and 8C). […]

Substance | concentration confirmed / usable / required in long-term assay [1] [ng/mL] | potency relative to TGFβ1 [2] | effect of component on stability of FGF2-G3 [3] | additive effect in B8 [4]
TGFβ3: 112 amino acid TGFβ3 (SEQ ID NO: 16) made in E. coli as thioredoxin fusion protein | 0.1 | more potent than TGFβ1 |  | 
heparin |  |  | improved the stability of FGF2-G3 | do not have an additive effect
